Patent US20040110787A1, “Heteroaryl-ethanolamine derivatives as antiviral agents” (priority 2002, published 2004)

Experiments:
[1] = molecular target: T1, HCMV polymerase (Human cytomegalovirus, UniProt P08546); experiment: HCMV polymerase scintillation proximity assay (SPA); type: biochemical; conditions: HCMV polymerase, SPA; read-out: Polymerase IC50 HCMV
T1 construct: made in house; host or cells: recombinant baculovirus-infected SF-9 cells
Procedure: The HCMV polymerase assay is performed using a scintillation proximity assay (SPA) as described in several references, such as N. D. Cook, et al., Pharmaceutical Manufacturing International, pages 49-53 (1992); K Takeuchi, Laboratory Practice, September issue (1992); U.S. Pat. No. 4,568,649 (1986); which are incorporated by reference herein. Reactions are performed in 96-well plates. The assay is conducted in 100 μl volume with 5.4 mM HEPES (pH 7.5), 11.7 mM KCl, 4.5 mM MgCl2, 0.36 mg/ml BSA, and 90 nM ^3H-dTTP. Assays are run with and without CHAPS, (3-[(3-Cholamidopropyl)-dimethylammonio]-1-propane-sulfonate) at a final concentration of 2 mM. HCMV polymerase is diluted in enzyme dilution buffer containing 50% glycerol, 250 mM NaCl, 10 mM HEPES (pH 7.5), 100 μg/ml BSA, and 0.01% sodium azide. The HCMV polymerase, which is expressed in, recombinant baculovirus-infected SF-9 cells and purified according to literature procedures, is added at 10% (or 10 μl) of the final reaction volume, i.e., 100 μl. Compounds are diluted in 50% DMSO and 10 μl are added to each well. Control wells contain an equivalent concentration of DMSO. Unless noted otherwise, reactions are initiated via the addition of 6 nM biotinylated poly(dA)-oligo(dT) template/primer to reaction mixtures containing the enzyme, substrate, and compounds of interest. Plates are incubated in a 25° C. or 37° C. H2O bath and terminated via the addition of 40 μl/reaction of 0.5 M EDTA (pH 8) per well. Reactions are terminated within the time-frame during which substrate incorporation is linear and varied depending upon the enzyme and conditions used, i.e., 30 min. for HCMV polymerase. Ten (10) 10 μL of streptavidin-SPA beads (20 mg/ml in PBS/10% glycerol) are added following termination of the reaction. Plates are incubated 10 min. at 37° C., then equilibrated to room temperature, and counted on a Packard Topcount. Linear regressions are performed and IC50's are calculated using computer software.
A modified version of the above HCMV polymerase assay is performed as described above, but with the following changes: Compounds are diluted in 100% DMSO until final dilution into assay buffer. In the previous assay, compounds are diluted in 50% DMSO. 4.5 mM Dithiothreitol (DTT) is added to the polymerase buffer.
All results are listed as Polymerase IC50 ([…]) values. In Table 1, the term “n.d.” refers to activity data not determined.

[2] = molecular target: HSV polymerase (Human herpesvirus 1, UniProt P04293); experiment: HSV polymerase assay (Table 1); type: biochemical
[3] = molecular target: VZV polymerase (Varicella-zoster virus, UniProt P09252); experiment: VZV polymerase assay (Table 1); type: biochemical
Chain of VZV polymerase (P09252 whole entry): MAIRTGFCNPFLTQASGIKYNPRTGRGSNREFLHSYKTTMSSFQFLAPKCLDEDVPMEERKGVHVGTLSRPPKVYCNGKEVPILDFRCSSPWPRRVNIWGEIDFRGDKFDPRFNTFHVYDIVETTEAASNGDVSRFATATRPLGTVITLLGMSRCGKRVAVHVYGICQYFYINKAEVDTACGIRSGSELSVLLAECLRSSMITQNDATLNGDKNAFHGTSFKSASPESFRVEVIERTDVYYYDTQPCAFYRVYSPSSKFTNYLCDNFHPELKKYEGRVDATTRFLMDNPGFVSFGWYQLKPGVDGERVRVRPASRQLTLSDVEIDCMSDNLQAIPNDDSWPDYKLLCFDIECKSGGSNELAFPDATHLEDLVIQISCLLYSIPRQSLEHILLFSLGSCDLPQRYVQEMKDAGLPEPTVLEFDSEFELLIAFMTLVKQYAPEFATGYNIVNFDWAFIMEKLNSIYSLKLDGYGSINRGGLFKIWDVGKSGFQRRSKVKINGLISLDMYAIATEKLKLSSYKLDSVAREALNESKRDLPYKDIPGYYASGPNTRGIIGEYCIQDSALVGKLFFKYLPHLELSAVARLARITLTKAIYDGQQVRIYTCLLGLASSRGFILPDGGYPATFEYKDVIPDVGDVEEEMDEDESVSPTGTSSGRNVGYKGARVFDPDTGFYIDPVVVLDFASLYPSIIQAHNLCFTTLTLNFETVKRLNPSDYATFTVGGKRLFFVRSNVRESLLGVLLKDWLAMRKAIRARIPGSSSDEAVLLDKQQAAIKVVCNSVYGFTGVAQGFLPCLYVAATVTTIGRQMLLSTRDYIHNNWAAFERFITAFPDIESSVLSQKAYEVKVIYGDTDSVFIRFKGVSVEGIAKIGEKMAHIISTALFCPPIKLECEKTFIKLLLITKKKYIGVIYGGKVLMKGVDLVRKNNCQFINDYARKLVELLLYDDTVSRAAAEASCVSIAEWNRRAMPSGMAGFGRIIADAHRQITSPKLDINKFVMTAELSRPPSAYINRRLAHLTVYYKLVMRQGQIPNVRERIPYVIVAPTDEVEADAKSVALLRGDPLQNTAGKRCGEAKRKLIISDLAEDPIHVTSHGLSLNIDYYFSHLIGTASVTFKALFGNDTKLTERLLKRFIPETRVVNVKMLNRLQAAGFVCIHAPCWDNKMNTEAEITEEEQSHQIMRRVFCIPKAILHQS

Chain of HSV polymerase (P04293 whole entry): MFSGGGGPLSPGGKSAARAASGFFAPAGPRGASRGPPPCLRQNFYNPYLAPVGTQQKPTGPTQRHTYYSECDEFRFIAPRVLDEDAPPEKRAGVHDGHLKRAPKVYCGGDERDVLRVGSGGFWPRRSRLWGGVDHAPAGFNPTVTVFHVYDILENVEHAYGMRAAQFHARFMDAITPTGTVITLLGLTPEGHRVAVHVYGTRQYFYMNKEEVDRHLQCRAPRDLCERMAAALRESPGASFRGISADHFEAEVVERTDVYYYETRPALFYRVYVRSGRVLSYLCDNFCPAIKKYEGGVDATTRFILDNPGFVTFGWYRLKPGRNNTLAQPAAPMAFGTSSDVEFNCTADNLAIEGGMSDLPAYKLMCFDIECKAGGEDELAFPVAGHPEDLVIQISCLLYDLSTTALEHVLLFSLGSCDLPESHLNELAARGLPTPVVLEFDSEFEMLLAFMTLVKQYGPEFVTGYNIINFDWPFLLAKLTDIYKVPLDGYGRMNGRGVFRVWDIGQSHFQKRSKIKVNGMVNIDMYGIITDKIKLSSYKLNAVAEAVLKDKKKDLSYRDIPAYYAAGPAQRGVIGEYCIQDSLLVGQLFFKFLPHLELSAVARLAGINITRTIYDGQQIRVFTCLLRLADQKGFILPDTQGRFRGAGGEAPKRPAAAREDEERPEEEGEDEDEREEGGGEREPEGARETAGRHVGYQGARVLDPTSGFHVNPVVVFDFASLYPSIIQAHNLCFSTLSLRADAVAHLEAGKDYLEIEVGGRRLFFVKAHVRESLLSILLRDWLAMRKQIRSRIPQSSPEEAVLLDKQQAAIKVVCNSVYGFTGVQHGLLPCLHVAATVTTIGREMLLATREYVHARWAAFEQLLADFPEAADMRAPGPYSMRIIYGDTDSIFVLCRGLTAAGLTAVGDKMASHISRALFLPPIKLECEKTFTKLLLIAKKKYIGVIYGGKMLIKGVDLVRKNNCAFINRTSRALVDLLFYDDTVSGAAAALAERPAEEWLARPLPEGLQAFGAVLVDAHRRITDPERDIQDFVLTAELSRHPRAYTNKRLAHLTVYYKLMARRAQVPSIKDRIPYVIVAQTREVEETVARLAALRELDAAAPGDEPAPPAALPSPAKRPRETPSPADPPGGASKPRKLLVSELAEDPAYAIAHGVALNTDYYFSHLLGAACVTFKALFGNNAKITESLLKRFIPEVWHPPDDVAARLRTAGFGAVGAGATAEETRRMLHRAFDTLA
T1 sequence (P08546 whole entry): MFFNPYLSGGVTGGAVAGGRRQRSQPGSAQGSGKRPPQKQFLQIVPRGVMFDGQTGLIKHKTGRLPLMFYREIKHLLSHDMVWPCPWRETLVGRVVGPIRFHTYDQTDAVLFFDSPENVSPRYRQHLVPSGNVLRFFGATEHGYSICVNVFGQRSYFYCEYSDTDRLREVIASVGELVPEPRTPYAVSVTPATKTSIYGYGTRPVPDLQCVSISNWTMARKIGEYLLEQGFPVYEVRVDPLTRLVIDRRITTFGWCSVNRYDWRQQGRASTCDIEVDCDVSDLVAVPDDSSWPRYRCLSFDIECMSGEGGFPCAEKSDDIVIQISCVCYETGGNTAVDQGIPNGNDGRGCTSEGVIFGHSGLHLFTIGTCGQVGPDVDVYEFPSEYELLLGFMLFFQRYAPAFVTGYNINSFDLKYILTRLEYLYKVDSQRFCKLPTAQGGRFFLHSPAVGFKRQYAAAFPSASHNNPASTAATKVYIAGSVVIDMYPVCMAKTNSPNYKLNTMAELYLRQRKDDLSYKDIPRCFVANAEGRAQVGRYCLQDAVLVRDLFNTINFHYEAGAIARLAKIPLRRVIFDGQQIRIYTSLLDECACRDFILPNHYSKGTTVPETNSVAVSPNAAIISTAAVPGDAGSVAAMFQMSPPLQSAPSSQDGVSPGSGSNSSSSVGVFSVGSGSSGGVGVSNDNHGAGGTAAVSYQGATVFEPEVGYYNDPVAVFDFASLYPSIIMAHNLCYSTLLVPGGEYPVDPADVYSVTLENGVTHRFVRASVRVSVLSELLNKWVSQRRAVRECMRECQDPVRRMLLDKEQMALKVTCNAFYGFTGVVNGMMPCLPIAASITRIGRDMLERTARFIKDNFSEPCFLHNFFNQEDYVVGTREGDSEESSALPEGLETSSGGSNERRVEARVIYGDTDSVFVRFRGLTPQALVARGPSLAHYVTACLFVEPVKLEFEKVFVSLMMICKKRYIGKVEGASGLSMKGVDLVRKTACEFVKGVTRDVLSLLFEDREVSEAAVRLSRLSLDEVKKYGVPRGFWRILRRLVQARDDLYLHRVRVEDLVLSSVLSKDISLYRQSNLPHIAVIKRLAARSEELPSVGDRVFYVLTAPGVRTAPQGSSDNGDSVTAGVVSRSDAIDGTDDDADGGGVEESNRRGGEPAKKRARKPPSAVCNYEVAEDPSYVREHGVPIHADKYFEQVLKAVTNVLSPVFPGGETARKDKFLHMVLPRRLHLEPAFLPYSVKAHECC

IC50 [1] [nM] | IC50 [2] [nM] | IC50 [3] [nM] | melting point [°C] | SMILES
370 | 550 | 170 | 130 to 133 | CCn1cc(C(=O)NCc2ccc(Cl)cc2)c(=O)c2cc(CN(C)CC(O)c3cnccn3)sc21 (racemic) [Example 13, rac-N-(4-Chlorobenzyl)-7-ethyl-2-(((2-hydroxy-2-pyrazin-2-ylethyl)(methyl)amino)methyl)-4-oxo-4,7-dihydrothieno[2,3-b]pyridine-5-carboxamide]
80 | 350 | 130 | 132 to 135 | CN(Cc1cc2c(=O)c(C(=O)NCc3ccc(Cl)cc3)cn(C)c2s1)CC(O)c1cccnc1 (single isomer, unassigned; (+)) [Example 2, (+)-N-(4-Chlorobenzyl)-2-(((2-hydroxy-2-pyridin-3-ylethyl)(methyl)amino)methyl)-7-methyl-4-oxo-4,7-dihydrothieno[2,3-b]pyridine-5-carboxamide]
60 | 60 | 20 | 139 to 144 | CN(Cc1cc2c(=O)c(C(=O)NCc3ccc(Cl)cc3)cn(C)c2s1)C[C@@H](O)c1ccccn1 [Example 5, (+)-N-(4-Chlorobenzyl)-2-((((2R)-2-hydroxy-2-pyridin-2-ylethyl)(methyl)amino)methyl)-7-methyl-4-oxo-4,7-dihydrothieno[2,3-b]pyridine-5-carboxamide]
